Measurements published in ChEMBL document CHEMBL1201862, “PubChem BioAssay data set” (2004).
Activity calls are given as the source filed them.

What was measured:
[1] = LGR2 antagonists, dose response, cell-based, HEK293, CRE-luciferase reporter, cherry pick, set 2 (AID 743343); type: functional;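 note: transfected cells were stimulated with diluted bursicon conditioned medium after compound addition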
[2] = A549 cell cytotoxicity, dose response, cytotoxicity control, plate reader, cherry-pick, antagonist series (AID 743412); type: functional, cell-based
[3] = HEK293T cytotoxicity, dose response, cytotoxicity control for miR-122 modulator project, cell-based, inhibitor set, cherry-pick, set 2 (AID 720697); type: functional
[4] = target: T1, Calpain-2 catalytic subunit (Sus scrofa, UniProt P43367); assay: pig calpain II inhibitor potency, dose response, biochemical, fluorogenic peptide substrate (AID 1420); type: functional
T1 sequence (P43367 whole entry): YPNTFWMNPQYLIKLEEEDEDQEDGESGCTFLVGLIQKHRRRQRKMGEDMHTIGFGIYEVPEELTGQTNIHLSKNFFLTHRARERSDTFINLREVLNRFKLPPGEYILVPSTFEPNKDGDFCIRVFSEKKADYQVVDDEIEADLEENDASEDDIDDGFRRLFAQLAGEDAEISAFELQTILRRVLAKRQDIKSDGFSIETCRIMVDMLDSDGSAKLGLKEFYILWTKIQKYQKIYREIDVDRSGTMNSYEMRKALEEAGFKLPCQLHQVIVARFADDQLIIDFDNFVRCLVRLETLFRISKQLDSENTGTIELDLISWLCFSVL

[5] = target: T2, Oxysterols receptor LXR-beta (Homo sapiens, UniProt P55055); type: functional, cell-based;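 note: agonist activity at LXR measured by a cell-based luminescence readout across a dose range, run as a counterscreen for daf-12 agonists; HEK293 cells with Gal4-LXR fusion and GAL4-driven luciferase reporter; potency for activation of Gal4-LXR reporter so compounds are agonists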
T2 sequence (P55055 whole entry): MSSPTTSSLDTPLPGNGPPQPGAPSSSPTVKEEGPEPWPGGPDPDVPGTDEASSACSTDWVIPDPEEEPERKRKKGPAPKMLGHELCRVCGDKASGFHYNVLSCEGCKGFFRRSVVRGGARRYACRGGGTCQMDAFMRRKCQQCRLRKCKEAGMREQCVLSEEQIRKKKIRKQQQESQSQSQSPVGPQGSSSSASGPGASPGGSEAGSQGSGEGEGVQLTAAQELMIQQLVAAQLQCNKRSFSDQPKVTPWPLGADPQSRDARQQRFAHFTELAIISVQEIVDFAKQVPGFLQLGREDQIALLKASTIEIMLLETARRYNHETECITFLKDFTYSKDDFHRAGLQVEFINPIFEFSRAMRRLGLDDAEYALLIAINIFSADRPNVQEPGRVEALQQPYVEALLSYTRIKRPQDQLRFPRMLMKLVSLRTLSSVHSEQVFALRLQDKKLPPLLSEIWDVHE

cells = type: functional, cell-based
[6] = target: T3, Nuclear receptor subfamily 0 group B member 1 (Homo sapiens, UniProt P51843); type: functional, cell-based;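 note: HEK293T cells transfected with SF-1 and DAX-1 plus StAR promoter luciferase reporter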
T3 sequence (P51843 whole entry): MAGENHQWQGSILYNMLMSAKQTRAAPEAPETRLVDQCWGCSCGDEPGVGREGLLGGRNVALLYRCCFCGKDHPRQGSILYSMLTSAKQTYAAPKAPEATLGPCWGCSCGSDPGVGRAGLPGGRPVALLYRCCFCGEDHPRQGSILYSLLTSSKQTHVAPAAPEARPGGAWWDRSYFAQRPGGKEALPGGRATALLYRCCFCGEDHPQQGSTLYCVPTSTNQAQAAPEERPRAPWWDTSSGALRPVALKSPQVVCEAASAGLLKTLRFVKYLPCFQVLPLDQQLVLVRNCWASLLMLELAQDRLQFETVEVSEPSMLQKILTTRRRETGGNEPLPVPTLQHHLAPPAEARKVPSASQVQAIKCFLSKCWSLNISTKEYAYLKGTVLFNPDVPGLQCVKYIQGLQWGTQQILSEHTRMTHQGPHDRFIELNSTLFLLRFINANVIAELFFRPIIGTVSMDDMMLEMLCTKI

[7] = Shn3 3'UTR reporter inhibitors, dose response, cell-based, Clone20 osteoblasts, firefly luciferase, cherry-picked (AID 624132); type: functional;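 note: firefly luciferase luminescence from reporter carrying the Shn3 3'UTR in osteoblasts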
[8] = control 3'UTR Renilla luciferase suppression, dose response, counter-screen for Shn3 inhibitor project, cell-based, Clone20-Shn3RL, cherry-picked (AID 624133); type: functional
[9] = cytotoxicity in KRAS-transformed pancreatic duct cells, primary screen, cell-based, fluorescence, HTS (AID 431); type: functional; details: Homo sapiens;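 note: cell line used: HPDE-C7K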
BJ [10] = assay: cytotoxicity toward BJ-TERT-LT-ST fibroblasts, dose response, cell-based, RAS-independent, luminescence (AID 1935); type: functional; details: Homo sapiens;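 note: BJ fibroblasts immortalized with TERT plus LT and ST oncogenes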
Paired box protein Pax-8 = Paired box protein Pax-8 (Homo sapiens, UniProt Q06710); assay: inhibitors of PAX8-driven TPO luciferase reporter, dose response, RMG-I cells, cherry-pick (AID 687027); type: functional, cell-based;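 note: luciferase reporter driven by Pax8 target thyroperoxidase promoter measured by SteadyGlo luminescence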
Chain of Paired box protein Pax-8 (Q06710 whole entry): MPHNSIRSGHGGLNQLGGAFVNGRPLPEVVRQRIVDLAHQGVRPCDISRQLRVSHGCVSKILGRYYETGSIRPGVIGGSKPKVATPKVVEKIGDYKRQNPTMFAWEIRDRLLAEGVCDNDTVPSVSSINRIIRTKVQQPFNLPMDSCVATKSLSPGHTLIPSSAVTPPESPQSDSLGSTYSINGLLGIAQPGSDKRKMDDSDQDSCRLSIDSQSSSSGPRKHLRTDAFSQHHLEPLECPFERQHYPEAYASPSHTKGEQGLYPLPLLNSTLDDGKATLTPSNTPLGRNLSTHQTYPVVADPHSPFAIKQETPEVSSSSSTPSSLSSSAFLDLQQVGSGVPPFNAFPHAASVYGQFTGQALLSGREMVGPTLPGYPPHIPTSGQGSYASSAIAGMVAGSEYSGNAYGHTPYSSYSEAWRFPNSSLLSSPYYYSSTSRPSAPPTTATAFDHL

[11] = cytotoxicity toward DRD oncogenic fibroblasts, dose response, cell-based, non-viral oncogenic, luminescence (AID 1934); type: functional; details: Homo sapiens
[12] = cytotoxicity in HEK-293T cells, dose response, cytotoxicity control for TCR NF-kB inhibitor project, luminescence, T-cell screen hits (AID 489026); type: functional, cell-based;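 note: cells exposed to compound about 14 hours before the viability readout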
[13] = non-specific cell cytotoxicity, dose response, cytotoxicity control for PAX8 inhibitor project, plate reader, dry powder samples (AID 743021); type: functional, cell-based
[14] = cytotoxicity in HPDE-C7 cells, cell-based, fluorescence, HTS (AID 430); type: functional; details: Homo sapiens
BJ [15] = assay: cytotoxicity toward BJ-TERT fibroblasts, dose response, cell-based, RAS-independent, luminescence (AID 1933); type: functional; details: Homo sapiens
[16] = HepG2 cell cytotoxicity, dose response, cytotoxicity control for Shn3 inhibitor project, CellTiter-Glo, cherry-picked (AID 624134); type: functional, cell-based
BJ [17] = assay: cells; type: functional, cell-based; details: Homo sapiens
[18] = target: T4, Corticotropin-releasing factor receptor 2/Corticotropin-releasing factor-binding protein (Homo sapiens, UniProt P24387+Q13324); assay: activators of CRF receptor 2 with binding protein – uHTS hits, confirmation (AID 602473); type: functional; details: read-out: EC50_Mean
T4 sequence (Q13324 whole entry): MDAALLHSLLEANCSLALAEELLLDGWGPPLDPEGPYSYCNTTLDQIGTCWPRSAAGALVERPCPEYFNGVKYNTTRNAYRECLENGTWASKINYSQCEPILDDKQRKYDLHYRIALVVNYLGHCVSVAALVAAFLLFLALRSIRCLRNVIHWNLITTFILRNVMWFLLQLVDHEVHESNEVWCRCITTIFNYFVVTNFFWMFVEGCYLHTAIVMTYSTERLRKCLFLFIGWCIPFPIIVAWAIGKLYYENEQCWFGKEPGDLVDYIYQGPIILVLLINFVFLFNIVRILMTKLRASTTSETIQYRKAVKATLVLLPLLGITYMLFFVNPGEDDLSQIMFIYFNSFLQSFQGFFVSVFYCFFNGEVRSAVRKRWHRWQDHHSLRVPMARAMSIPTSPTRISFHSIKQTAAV
T4 sequence (P24387 whole entry): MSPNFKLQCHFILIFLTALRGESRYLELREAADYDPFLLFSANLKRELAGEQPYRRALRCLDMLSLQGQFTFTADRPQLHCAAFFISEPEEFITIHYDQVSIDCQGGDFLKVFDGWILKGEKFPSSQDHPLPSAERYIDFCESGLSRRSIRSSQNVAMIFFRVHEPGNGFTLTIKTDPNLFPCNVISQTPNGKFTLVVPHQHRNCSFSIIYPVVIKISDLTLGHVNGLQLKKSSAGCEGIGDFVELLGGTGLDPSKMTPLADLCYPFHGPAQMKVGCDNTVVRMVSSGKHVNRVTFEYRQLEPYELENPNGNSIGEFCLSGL

Cytochrome P450 3A4 = Cytochrome P450 3A4 (Homo sapiens, UniProt P08684);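 note: CYP3A4 tested as one member of a cytochrome P450 panel screen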
Chain of Cytochrome P450 3A4 (P08684 whole entry): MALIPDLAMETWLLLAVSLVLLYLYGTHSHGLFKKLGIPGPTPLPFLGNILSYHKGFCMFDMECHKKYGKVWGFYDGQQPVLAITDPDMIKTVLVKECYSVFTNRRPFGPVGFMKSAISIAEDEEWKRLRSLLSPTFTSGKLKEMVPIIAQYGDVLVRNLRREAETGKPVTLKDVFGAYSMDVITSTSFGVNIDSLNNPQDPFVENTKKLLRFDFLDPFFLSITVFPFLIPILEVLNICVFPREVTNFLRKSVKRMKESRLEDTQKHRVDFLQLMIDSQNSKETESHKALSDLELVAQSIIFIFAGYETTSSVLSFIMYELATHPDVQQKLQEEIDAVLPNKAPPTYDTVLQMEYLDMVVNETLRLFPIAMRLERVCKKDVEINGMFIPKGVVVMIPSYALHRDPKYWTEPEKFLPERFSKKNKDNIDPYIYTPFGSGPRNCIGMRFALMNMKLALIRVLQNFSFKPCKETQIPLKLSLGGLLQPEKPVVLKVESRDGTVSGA

[19] = target: Long-chain-fatty-acid--AMP ligase FadD28 (Mycobacterium tuberculosis, UniProt P9WQ59); assay: Fluorescence polarization aasay to screen for inhibitors that compete for the binding of FadD28 to a bisubstrate Measured in Biochemical System Using Plate Reader - 2147-01_Inhibitor_Dose_CherryPick_Activity.; type: functional, Mycobacterium tuberculosis H37Rv
Chain of Long-chain-fatty-acid--AMP ligase FadD28 (P9WQ59 whole entry): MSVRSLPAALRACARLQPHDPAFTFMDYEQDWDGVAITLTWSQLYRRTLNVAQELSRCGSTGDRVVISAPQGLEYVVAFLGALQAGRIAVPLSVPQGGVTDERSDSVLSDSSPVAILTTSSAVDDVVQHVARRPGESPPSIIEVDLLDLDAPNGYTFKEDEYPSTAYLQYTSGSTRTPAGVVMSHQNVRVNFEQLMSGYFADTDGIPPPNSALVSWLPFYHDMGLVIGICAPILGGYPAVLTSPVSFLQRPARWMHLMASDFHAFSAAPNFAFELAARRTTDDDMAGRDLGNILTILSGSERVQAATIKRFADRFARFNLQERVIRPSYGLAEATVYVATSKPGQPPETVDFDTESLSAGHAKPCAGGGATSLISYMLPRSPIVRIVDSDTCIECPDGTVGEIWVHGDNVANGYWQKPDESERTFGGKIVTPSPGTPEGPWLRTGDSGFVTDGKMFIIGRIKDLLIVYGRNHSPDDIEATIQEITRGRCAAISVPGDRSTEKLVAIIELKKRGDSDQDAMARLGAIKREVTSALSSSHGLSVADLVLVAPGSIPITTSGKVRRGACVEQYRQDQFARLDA

[20] = target: T5, Endoribonuclease toxin MazF (Escherichia coli K-12, UniProt P0AE70); assay: fluorescent RNA oligo signal without MazF, dose response, counter-screen for MazEF activator project, biochemical, fluorescence, single-stranded RNase substrate (AID 588502); type: functional
T5 sequence (P0AE70 whole entry): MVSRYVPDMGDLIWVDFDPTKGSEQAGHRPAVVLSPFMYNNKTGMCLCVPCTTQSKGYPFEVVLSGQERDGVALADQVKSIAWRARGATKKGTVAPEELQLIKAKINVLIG

Cytochrome P450 2C9 = Cytochrome P450 2C9 (Homo sapiens, UniProt P11712)
Chain of Cytochrome P450 2C9 (P11712 whole entry): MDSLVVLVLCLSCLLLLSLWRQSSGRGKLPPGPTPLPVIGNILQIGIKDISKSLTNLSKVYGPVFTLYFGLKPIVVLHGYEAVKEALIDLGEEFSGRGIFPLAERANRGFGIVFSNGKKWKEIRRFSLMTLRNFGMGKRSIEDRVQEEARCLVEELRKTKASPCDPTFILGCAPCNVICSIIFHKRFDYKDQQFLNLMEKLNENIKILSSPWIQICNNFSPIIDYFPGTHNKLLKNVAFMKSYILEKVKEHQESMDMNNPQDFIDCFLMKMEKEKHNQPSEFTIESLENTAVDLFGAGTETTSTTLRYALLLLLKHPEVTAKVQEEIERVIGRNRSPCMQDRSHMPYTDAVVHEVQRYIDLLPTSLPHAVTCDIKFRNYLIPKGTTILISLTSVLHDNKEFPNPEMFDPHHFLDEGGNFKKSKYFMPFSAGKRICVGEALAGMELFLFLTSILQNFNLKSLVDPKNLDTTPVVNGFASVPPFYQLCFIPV

[21] = target: T5, Endoribonuclease toxin MazF; assay: MazF toxin RNase activators, dose response, biochemical, fluorescence, single-stranded RNA substrate, uHTS hits (AID 588481); type: functional

NCC[C@H]1CC[C@H](NS(=O)(=O)Cc2ccccc2)[C@@H](CO)O1
AC50 [1]: 40.7 µM (active) | AC50 [2]: > 52 µM (inactive)

CCn1nnnc1SCC(=O)Nc1nnc(C(C)C)s1
AC50 [3]: 7.36 µM (active)

Oc1ccccc1-c1cc(-c2ccc3c(c2)OCCO3)[nH]n1
IC50 [4]: > 50 µM (not active) | EC50 [5]: > 67.6 µM (inactive) | IC50 (cells): > 67.6 µM (inactive) | IC50 [6]: 17.6 µM (inactive)

COc1cccc(N2CCN(c3ncnc4c3cnn4-c3ccc(C)cc3C)CC2)c1
AC50 [7]: 4.65 µM (active) | AC50 [8]: 4.03 µM (active) | EC50 [9]: 3.17 µM (active) | EC50 (BJ [10]): > 150 µM (inconclusive) | AC50 (Paired box protein Pax-8): 6.38 µM (active) | EC50 [11]: 11 µM (active) | IC50 [12]: 3.73 µM (active) | AC50 [13]: 17.5 µM (active) | EC50 [14]: 3.78 µM (active) | EC50 (BJ [15]): 14.4 µM (active) | AC50 [16]: 37.2 µM (active) | EC50 (BJ [17]): 16.8 µM (active)

CC1=Nc2ccccc2/C1=C\c1nc(-c2ccc(C(F)(F)F)cc2)oc1O
EC50 [18]: 10.2 µM (active) | AC50 (Cytochrome P450 3A4): 28.2 µM (inconclusive) | AC50 [19]: > 100 µM (inactive) | EC50 [20]: > 99 µM (inactive) | AC50 (Cytochrome P450 2C9): 12.6 µM (inconclusive) | EC50 [21]: > 99 µM (inactive)
